The record followed here is US20100028293A1, “Agents for control of codling moth in fruit orchards” (Efal Chemical Industries Ltd., priority 2004, published 2010).

Assay [1] has as its system codling moth adults. Description: Cage bioassay, paired traps with synthetic compounds versus water/ethanol control trap. As to conditions: for attractiveness to the adult insects (insects caught in trap): individual compounds at the concentrations detected in the leaf extracts, paired with control trap of water and ethanol, 60 adults, overnight, decreasing order: methyl salicylate and theaspirane mixture, linalool, benzyl alcohol. In kind it is in vivo, Cydia pomonella. As to the method:
(i) Insects—Eggs of the CM Cydia pomonella L. were hatched at room temperature in a petri dish. The larvae were fed an artificial diet (Manduca Premix-Heliothis Premix, Stonefly Inc., Brvan, Tex.), kept at 25±0.5° C., 60±1% relative humidity and a photoperiod of 16:8 h (L:D) until the fifth instar larvae, which were transferred to corrugated paper strips (2 cm^2). Upon emergence, adult insects of mixed sex and age (within 2 days) were used for the cage bioassays.
(v) Cage bioassays—Trapping tests were conducted in screen cages (96×68×45 cm) in the laboratory at room temperature (23° C.±3° C.) based on the method of Zhu et al. (2003). Sixty codling moth adults of mixed sex and ages (2 days after pupal emergence) were released into a cage containing the traps with different treatments. […] A Whatman paper wick (10 cm long) was used as a dispenser. To examine the effects of adding recombinant BGL1 to the leaf extract, four traps were constructed and put into the same cage. The first trap contained 10 ml of leaf extract with the addition of recombinant BGL1. The second trap contained the same amount of leaf extract with the addition of glucoimidazole. The third trap contained only leaf extract and the fourth trap contained water. The insects caught in the traps, or around the trap, were counted 12 h after their release. The insects around the trap were defined as follows: the space of the screen cage was divided equally into four parts. Each trap was put in the center of each part. The number of the insects present in each specific space, not including the ones inside the trap, was obtained in the experiments. To test the attractiveness of the synthetic compounds, traps were made with the individual chemicals that were first dissolved in ethanol at the concentrations determined by the SPME-GC-MS analyses in leaf extracts treated with BGL1. The final concentration of ethanol was 0.01%. Each trap was kept in the cage with only a control water trap including 0.01% ethanol. The experiments were conducted overnight (from 9 pm to 9 am) to cover their active time before the twilight in the early morning. […] This experiment was replicated 3 times. The traps were randomly arranged in the replications to avoid possible position effect of the traps. The studies on sex ratios of trapped insects were skipped because of complicated involvement of insect pheromones.

For assay [2], the system named is endogenous β-glucosidase in apple leaf extracts. The assay is described as follows: Quantitative β-glucosidase activity assay with pNPG as substrate. In kind it is biochemical, Malus domestica. As to conditions: 2 μM glucoimidazole added to leaf homogenate. As for the experimental part:
(ii) Apple leaf extract treatments—Apple (cv. Anna) spurs with both leaves and fruit were excised from a commercial orchard in the suburb of Rehovot, Israel, in June 2004. The leaves were excised from the spurs, rinsed with double distilled water (DDW) and then dried with filter paper. Dried leaves were homogenized in liquid nitrogen. Three times the weight of ice-cold extraction buffer containing 10 mM EDTA and 4 mM DTT in 50 mM citrate buffer, pH 4.3, was added to the leaf homogenate (4-5 g per treatment). The mixture was then rotated for 1 h at 4° C. and centrifuged at 16,000 g for 5 min. The supernatant (10 ml per treatment) was collected. In one treatment, 1 unit of recombinant A. niger BGL1 produced in P. pastoris (Dan et al., 2000) was added and the solution was kept at 37° C. for 4 h. In another treatment, 2 μM glucoimidazole (a β-glucosidase inhibitor) was added to the leaf homogenate immediately after the addition of the extraction buffer in order to block any endogenous β-glucosidase activity. Quantitative β-glucosidase activity was assayed using p-nitrophenyl-β-D-glucopyranoside (pNPG) as the substrate according to Shoseyov et al (1990).

Molecules are shown by their SMILES.

Regarding `CC(C)=CCC/C(C)=C/CO` [geraniol], the “repellent effect on codling moth adults” value in assay [1] (39.4 ng ml^−1) is given as “exhibited a repellent effect”.

`OCc1ccccc1` [benzyl alcohol]: in assay [1], the “attractiveness to the adult insects (insects caught in trap)” value (from here on “attractiveness to the adult insects”) was “more attractive than water”.

In the case of `CCCCCCCCO` [1-octanol, reference compound], the “effect on the behavior of codling moth adults” value in assay [1] (1-octanol alone or added to other compounds) is given as “does not have a significant effect”. Also, the “insects caught in trap” value in assay [1] (trap with 70 ng m^−1 1-octanol) is given as “did not catch any insects”.

Consider `COC(=O)c1ccccc1O` [methyl salicylate], for which the “attractiveness to the adult insects” value in assay [1] is on record as “more attractive than water”.

Turning to `OC[C@@H]1[C@@H](O)[C@H](O)[C@@H](O)c2nccn21` [glucoimidazole], in assay [2], the “β-glucosidase activity in the leaf extract after treatment” value is given as “undetectable levels”.

In the case of `C=CC(C)(O)CCC=C(C)C` (stereo not shown) [linalool], the “attractiveness to the adult insects” value in assay [1] was “more attractive than water”.
